# Assay results reported in US20060173080A1, “Methods of modulating TNF using bupropion” (The Regents of the University of California, priority 2002, published 2006).
# “Also recorded” adds a separate entry of the source. Where a name gives a salt, the structure may show the parent alone.
# Tests used:
# TNF-alpha = assay: TNF level in patients with congestive heart failure before and on bupropion; type: in vivo, human; details: for TNF: NYSHA Class I CHF
# Protocol: A person with NYSHA Class I CHF who started on bupropion for major depression. Their TNF before bupropion was 347 pg/ml and 5 pg/ml after two months on bupropion 150 mg twice a day (BID). […] In addition, a person with a history of two myocardial infarctions and NYSHA Class II CHF, who started on bupropion for major depression and desire to stop a 1.5 container/day chewing tobacco habit. Their TNF before starting bupropion was 433 pg/ml, and […] and then four weeks on bupropion 150 mg three times a day (TID). They subsequently stopped using tobacco and their depression is in remission. Finally, a person with NYSHA Class I CHF-TNF was 303 pg/ml before bupropion was started for depression and 7 pg/ml on 150 mg TID.
# major depression = assay: Course of major depression in the case patients on bupropion; type: in vivo, human; details: case patients on bupropion 150 mg BID or TID; hydrochloride
# Protocol: After careful review of treatment options, they were started on bupropion (fluoxetine was stopped) with up-titration to 150 mg twice a day. Their abdominal complaints eased over the next months, and the major depression remitted. The baseline dysthymia remained. To better treat the dysthymia, bupropion was raised to 150 mg three times daily with a further lowering of their CDAI. The mesalamine was tapered off. Their CDAI is currently approximately zero. They have one well-formed bowel movement daily and has been without abdominal symptoms or encopresis for 19 months now. They have had no CD flares since starting bupropion. Twice in the last year, they stopped bupropion on their own accord because they felt completely well and felt they didn't need bupropion anymore. […] A person with NYSHA Class I CHF who started on bupropion for major depression. Their TNF before bupropion was 347 pg/ml and 5 pg/ml after two months on bupropion 150 mg twice a day (BID). […] In addition, a person with a history of two myocardial infarctions and NYSHA Class II CHF, who started on bupropion for major depression and desire to stop a 1.5 container/day chewing tobacco habit. Their TNF before starting bupropion was 433 pg/ml, and […] and then four weeks on bupropion 150 mg three times a day (TID). They subsequently stopped using tobacco and their depression is in remission.
# TNF = assay: Serum TNF by ELISA in LPS-challenged mice; type: in vivo, BALB/c mice; details: bupropion 100 mg/kg i.p. 1 h before 600 μg LPS i.p., serum 90 min after LPS
# Protocol: (§1) To study the immunomodulatory effects of bupropion we used a mouse model in which TNF production is induced by stimulation with lipopolysaccharide (LPS) (Bozza et al, The PACAP-type I receptor agonist maxadilan from sand fly saliva protects mice against lethal endotoxemia by a mechanism partially dependent on IL-10, Eur. J. Immunol. 28, 3120-3127, 1998). BALB/c mice were injected intraperitoneally (i.p.) with bupropion or placebo 1 h prior to i.p. injection of LPS (600 ug/mouse).
# Male, 6 weeks old BALB/c mice were used in LPS-induced shock experiments. All mice were raised and maintained at the animal facilities at the Goncalo Moniz Research Center-FIOCRUZ, and provided with rodent diet and water ad libitum. Animal numbers in experimental groups were the minimum necessary to permit statistical analysis. All animals were sacrificed under anaesthesia.
# Groups of mice were injected intraperitoneally (i.p.) with a dose of 600 μg of LPS (from Escherichia coli serotype 0111 :B4, Sigma, St. Louis, Mo., USA) in saline (previously determined as LD 100) 1 h after injection of placebo or bupropion. In some experiments, groups of mice received i.p. injection of propranolol (1 mg/Kg), SCH23390 (25 μg/kg) and sulpiride (25 mg/Kg) 1 h prior to injection of bupropion. […]. To determine serum TNF, IL-1 beta and IL-10 levels, mice were sacrificed 90 min after injection of LPS and bled by axilar vein puncture. Levels of IFN-gamma and nitric oxide were assayed using sera of mice sacrificed 4 h after LPS injection. Platelet and leukocyte cell counts were performed using blood collected with EDTA after 4 h of LPS challenge, using an automated cell counter (ADVIA 60, Bayer).
# (§2) TNF, IL-1beta, IFN-gamma and IL-10 concentrations in serum samples or in supernatants from macrophage cultures were determined by enzyme-linked immunosorbent assay (ELISA) using antibody pairs and recombinant cytokines from R&D systems (Minneapolis, Minn., USA), according to the manufacturer's instructions. After incubation with streptoavidin-peroxidase conjugate (Sigma), the reaction was developed using 3,3′, 5,5′-tetramethylbenzidine (TMB) peroxidase substrate and read at 450 nm. The serum concentration of nitrite (NO2−) was determined by the Griess reaction, as an indicator of nitric oxide production (Green et al., Analysis of nitrate nitrite and [^15N] nitrite in biological fluids. Anal. Biochem 126, 131-138, 1982). […] The absorbance of the reaction product at 540 nm was measured using an ELISA reader. The NO2^− concentration was determined by using sodium nitrite as standard. Data were analyzed using Student's t test, one-way ANOVA or Newman-Keuls multiple comparison test, using Graph Pad Prism 3.0 software. […]
# [1] = test system: platelet and leukocyte numbers in peripheral blood; assay: Platelet and leukocyte counts in peripheral blood 4 h after LPS challenge; type: in vivo, BALB/c mice; details: bupropion 100 mg/kg i.p. 1 h before LPS, hydrochloride
# Protocol: FIG. 6 is a bar graph depicting normalization of platelet and leukocyte levels by bupripion treatment. Groups of BALB/c mice were injected with bupropion 100 mg/kg (Wellbutrin, Glaxo) or with placebo i.p. in saline 1 h before challenge with 600 μg of LPS (DL-100) by i.p. route. Platelet and leukocyte numbers were evaluated in peripheral blood samples collected 4 h after LPS challenge in an automated cell counter (Bayer). * P<0.05 placebo compared with normal levels; # P<0.05 bupropion compared with placebo. In a shock often platelet levels drop precipitously due to intravascular coagulation and leukocyte also fall secondary to TNF induced apoptosis. The normalization by bupropion is consistent with the other effects of bupropion in this model.
# Groups of mice were injected intraperitoneally (i.p.) with a dose of 600 μg of LPS (from Escherichia coli serotype 0111 :B4, Sigma, St. Louis, Mo., USA) in saline (previously determined as LD 100) 1 h after injection of placebo or bupropion. In some experiments, groups of mice received i.p. injection of propranolol (1 mg/Kg), SCH23390 (25 μg/kg) and sulpiride (25 mg/Kg) 1 h prior to injection of bupropion. […]. To determine serum TNF, IL-1 beta and IL-10 levels, mice were sacrificed 90 min after injection of LPS and bled by axilar vein puncture. […]
# IL-1beta = assay: Serum IL-1beta by ELISA in LPS-challenged mice; type: in vivo, BALB/c mice; details: bupropion 100 mg/kg i.p. 1 h before 600 μg LPS i.p., serum 90 min after LPS
# Protocol: as §1
# Male, 6 weeks old BALB/c mice were used in LPS-induced shock experiments. All mice were raised and maintained at the animal facilities at the Goncalo Moniz Research Center-FIOCRUZ, and provided with rodent diet and water ad libitum. Animal numbers in experimental groups were the minimum necessary to permit statistical analysis. All animals were sacrificed under anaesthesia. […]
# as §2
# [2] = listed as bupropion hydrochloride
# [3] = listed as Bupropion, hydrochloride
smiles,measurement,setting,value
"CC(NC(C)(C)C)C(=O)c1cccc(Cl)c1 (racemic) [bupropion, (.±.)-1-(3-chlorophenyl)-2-[(1,1-dimethylethyl)amino]-1-propanone hydrochloride]",maintenance of low TNF,TNF-alpha; person two on bupropion,maintained for more than a year
same,TNF,"TNF-alpha; person two, on bupropion 150 mg TID, 303 pg/ml before",7 pg/mL
same,TNF,"TNF-alpha; person, after two months on bupropion 150 mg BID, 347 pg/ml before",5 pg/mL
same,change of TNF-alpha on bupropion,TNF-alpha; three patients with CHF,dropped profoundly
same,depression outcome,major depression,partially controlled; also recorded: in remission; also recorded: remitted
same,serum TNF level compared with placebo,TNF; [2],decrease
same,serum TNF level compared with placebo,TNF; hydrochloride,lowers; also recorded: significantly reduced
same,serum TNF level compared with placebo,TNF; [3],significantly decreased
same,serum TNF level compared with placebo,"TNF; listed as buproprion, hydrochloride",decreased
same,leukocyte levels,[1],higher leukocyte levels; also recorded: normalization
same,platelet counts,[1],significantly higher than placebo treated mice and similar to those of normal mice; also recorded: normalization
same,serum IL-1beta level compared with placebo,IL-1beta; [2],decrease
same,serum IL-1beta level compared with placebo,IL-1beta; hydrochloride,significantly reduced
same,serum IL-1beta level compared with placebo,IL-1beta; [3],significantly decreased
